18 molecules from patent US7871999B2, “Substituted thiazoles and their use for producing drugs” (Gruenenthal GmbH, priority 2005, dated 2011) can be followed below.

SMILES strings stand for the structures.

Experiment [1] addresses T1, mGluR5 receptor (Sus scrofa, UniProt I3LUI7).
T1 construct: pig brain hemispheres without medulla, cerebellum and pons ... differential centrifugation at 900×g and 40,000×g
Kind of experiment: Inhibition of [^3H]-MPEP binding in the mGluR5 receptor binding assay (pig brain homogenate). To be noted: 5 nM [^3H]-MPEP; for inhibition at 1 µM: 1 μM test compound. The procedure:
I. Method for Determining the Inhibition of [^3H]-MPEP Binding in the mGluR5 Receptor Binding Assay […]
The batches are then filtered with the assistance of a Brandel Cell Harvester (Brandel, Robotic 9600 model) on Unifilter plates with glass filter mats (Perkin Elmer, order number 6005177) and then washed 3 times with buffer (as above) using 250 μl per sample. The filter plates are then dried for 60 min at 55° C. Then 30 μl of Ultima Gold™ scintillating material (Packard BioScience, order number 6013159) is added per well and after 3 hours the samples are measured using the β counter (Microbeta, Perkin Elmer). Nonspecific binding is determined by the addition of 10 μM MPEP (Tocris, order number 1212).

The target in experiment [2] is T2, mGluR5 receptor (Homo sapiens, UniProt P41594).
T2 construct: host or cells: CHO cells (CHO-hmGluR5), incubated overnight with doxycycline
Kind of experiment: Functional Ca^2+ influx assay in the mGluR5 receptor assay (CHO-hmGluR5 cells, DHPG 10 μM). To be noted: Ki=IC50/(1+(AGconc./EC50)). Format: cell-based. From the text: II. Method for Determining Ca^2+ Influx in the mGluR5 Receptor Assay
[…] According to this assay, intracellular Ca^2+ release is quantified after activation of the mGluR5 receptor with the assistance of a Ca^2+-sensitive dye (type Fluo-4, Molecular Probes Europe BV, Leiden, Netherlands) in a FlexStation (Molecular Devices, Sunnyvale, USA).
Description of the Functional Ca^2+ Influx Assay
20,000 CHO-hmGluR5 cells/well (Euroscreen, Gosselies, Belgium) are pipetted out into 96 well plates (BD Biosciences, Heidelberg, Germany, Ref. 356640, clear bottom, 96 well, poly-D-lysine) and incubated overnight in HBSS buffer (Gibco No. 14025-050) with the following additives: 10% FCS (GIBCO, 10270-106) and doxycycline (BD Biosciences Clontech 631311 600 ng/ml).
For the purpose of functional investigation, the cells were loaded with 2 μM Fluo-4 and 0.01 vol. % Pluronic F127 (Molecular Probes Europe BV, Leiden, Netherlands) in HBSS buffer (Hank's buffered saline solution, Gibco Invitrogen GmbH, Karlsruhe, Germany) with Probenicid (Sigma P8761, 0.69 mg/ml) for 30 min at 37° C.
The cells are then washed 3 times with washing buffer (HBSS buffer, Gibco No. 14025-050, with Probenicid (Sigma P8761, 0.69 mg/ml) and then resuspended with the same buffer to make up to 100 μl. After 15 min, the plates are transferred for determination of Ca^2+ measurements in the presence of DHPG ((S)-3,5-dihydroxyphenylglycine, Tocris Biotrend Chemikalien GmbH, Cologne, Germany, final DHPG concentration: 10 μM) and in the presence or absence of test substances into a FLuorometric Imaging Plate Reader (FLIPR, Molecular Devices, Sunnyvale, Calif.).
Ca^2+-dependent fluorescence is measured before and after addition of test substances. Quantification proceeds by measuring the highest fluorescence intensity over time.
After recording a fluorescence baseline for 10 s, 50 μl of test substance solution (various test substance concentrations in HBSS buffer with 1% DMSO and 0.02% Tween 20, Sigma) are added and the fluorescence signal is measured for 6 min. Then, 50 μl of DHPG solution ((S)-3,5-dihydroxyphenylglycine, Tocris Biotrend Chemikalien GmbH, Cologne, Germany, final DHPG concentration: 10 μM) are added and Ca^2+ influx is simultaneously measured for 60 s. The final DMSO concentration amounts to 0.25% and the final Tween 20 content amounts to 0.005%. The data are analysed with Microsoft Excel and GraphPad Prism. The dose-response curves are calculated with non-linear regression and IC50 values are determined. Each data point is determined in triplicate and IC50 values are averaged from a minimum of 2 independent measurements.
Ki values are calculated using the following formula: Ki=IC50/(1+(AGconc./EC50)).
AGconc.=10 μM; EC50 corresponds to the DHPG concentration which is necessary for the semimaximal influx of Ca^2+.

A further experiment relates to rats. The experiment is described as follows: Formaldehyde test in rats (phase 2, chronic pain component). Format: in vivo. To be noted: rat. How it is done:
III. Formaldehyde Test in Rats: The formaldehyde test (Dubuisson, D. and Dennis, S. G., 1977, Pain, 4, 161-174) is a model of both acute and chronic pain. A biphasic nociceptive response is induced in freely mobile test animals by a single formaldehyde injection into the dorsal side of a hind paw, said response being detected by the observation of three clearly distinguishable behaviour patterns. The response is in two phases: phase 1=immediate response (duration up to 10 min; paw shaking, licking), phase 2=late response (after a resting phase; likewise paw shaking, licking; duration up to 60 min). The 1st phase reflects direct stimulation of the peripheral nocisensors with an elevated spinal nociceptive input or glutamate release (acute pain phase); the 2nd phase reflects spinal and peripheral hypersensitisation (chronic pain phase). In the investigations presented here, it was the chronic pain component (phase 2) which was evaluated. […] The specific behavioural changes, such as raising and shaking the paw, changes in weight bearing of the animal and biting and licking responses are observed and recorded over the observation period of 21 to 27 min after the formaldehyde injection. The various behaviours are summarised as a “pain rate” (PR), which is the calculated nociceptive response averaged over 3 min sub-intervals. […]

T1 sequence (I3LUI7 1-1212): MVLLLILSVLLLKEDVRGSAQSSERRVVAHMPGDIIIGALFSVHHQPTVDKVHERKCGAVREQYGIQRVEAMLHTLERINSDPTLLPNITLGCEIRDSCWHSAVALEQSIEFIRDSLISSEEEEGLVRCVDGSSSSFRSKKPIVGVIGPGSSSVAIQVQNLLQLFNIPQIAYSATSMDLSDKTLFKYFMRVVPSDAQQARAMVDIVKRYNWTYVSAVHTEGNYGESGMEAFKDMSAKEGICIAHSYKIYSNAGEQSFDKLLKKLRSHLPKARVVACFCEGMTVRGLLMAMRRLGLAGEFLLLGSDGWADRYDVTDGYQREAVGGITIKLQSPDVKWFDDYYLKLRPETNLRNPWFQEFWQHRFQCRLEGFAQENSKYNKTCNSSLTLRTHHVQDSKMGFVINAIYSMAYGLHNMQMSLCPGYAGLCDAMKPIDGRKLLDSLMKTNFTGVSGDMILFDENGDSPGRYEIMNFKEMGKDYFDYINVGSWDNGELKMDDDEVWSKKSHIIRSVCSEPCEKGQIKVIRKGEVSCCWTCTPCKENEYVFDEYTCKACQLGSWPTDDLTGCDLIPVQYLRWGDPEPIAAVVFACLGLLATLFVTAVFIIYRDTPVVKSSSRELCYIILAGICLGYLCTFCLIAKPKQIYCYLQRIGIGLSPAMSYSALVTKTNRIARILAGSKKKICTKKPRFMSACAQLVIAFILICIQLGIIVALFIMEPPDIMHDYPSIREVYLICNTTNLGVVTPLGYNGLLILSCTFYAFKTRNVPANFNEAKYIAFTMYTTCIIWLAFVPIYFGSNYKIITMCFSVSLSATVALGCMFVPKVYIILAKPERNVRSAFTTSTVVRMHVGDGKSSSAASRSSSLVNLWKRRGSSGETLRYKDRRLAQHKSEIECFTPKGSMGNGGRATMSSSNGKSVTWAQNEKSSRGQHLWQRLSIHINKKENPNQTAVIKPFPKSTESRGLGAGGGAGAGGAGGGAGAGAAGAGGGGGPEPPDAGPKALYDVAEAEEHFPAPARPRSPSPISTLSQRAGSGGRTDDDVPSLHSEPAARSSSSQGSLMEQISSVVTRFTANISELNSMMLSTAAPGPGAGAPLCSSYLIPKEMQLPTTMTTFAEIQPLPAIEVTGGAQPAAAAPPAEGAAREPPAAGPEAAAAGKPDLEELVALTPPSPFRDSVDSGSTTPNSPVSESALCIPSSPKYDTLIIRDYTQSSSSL
T2 sequence (P41594 21-1212): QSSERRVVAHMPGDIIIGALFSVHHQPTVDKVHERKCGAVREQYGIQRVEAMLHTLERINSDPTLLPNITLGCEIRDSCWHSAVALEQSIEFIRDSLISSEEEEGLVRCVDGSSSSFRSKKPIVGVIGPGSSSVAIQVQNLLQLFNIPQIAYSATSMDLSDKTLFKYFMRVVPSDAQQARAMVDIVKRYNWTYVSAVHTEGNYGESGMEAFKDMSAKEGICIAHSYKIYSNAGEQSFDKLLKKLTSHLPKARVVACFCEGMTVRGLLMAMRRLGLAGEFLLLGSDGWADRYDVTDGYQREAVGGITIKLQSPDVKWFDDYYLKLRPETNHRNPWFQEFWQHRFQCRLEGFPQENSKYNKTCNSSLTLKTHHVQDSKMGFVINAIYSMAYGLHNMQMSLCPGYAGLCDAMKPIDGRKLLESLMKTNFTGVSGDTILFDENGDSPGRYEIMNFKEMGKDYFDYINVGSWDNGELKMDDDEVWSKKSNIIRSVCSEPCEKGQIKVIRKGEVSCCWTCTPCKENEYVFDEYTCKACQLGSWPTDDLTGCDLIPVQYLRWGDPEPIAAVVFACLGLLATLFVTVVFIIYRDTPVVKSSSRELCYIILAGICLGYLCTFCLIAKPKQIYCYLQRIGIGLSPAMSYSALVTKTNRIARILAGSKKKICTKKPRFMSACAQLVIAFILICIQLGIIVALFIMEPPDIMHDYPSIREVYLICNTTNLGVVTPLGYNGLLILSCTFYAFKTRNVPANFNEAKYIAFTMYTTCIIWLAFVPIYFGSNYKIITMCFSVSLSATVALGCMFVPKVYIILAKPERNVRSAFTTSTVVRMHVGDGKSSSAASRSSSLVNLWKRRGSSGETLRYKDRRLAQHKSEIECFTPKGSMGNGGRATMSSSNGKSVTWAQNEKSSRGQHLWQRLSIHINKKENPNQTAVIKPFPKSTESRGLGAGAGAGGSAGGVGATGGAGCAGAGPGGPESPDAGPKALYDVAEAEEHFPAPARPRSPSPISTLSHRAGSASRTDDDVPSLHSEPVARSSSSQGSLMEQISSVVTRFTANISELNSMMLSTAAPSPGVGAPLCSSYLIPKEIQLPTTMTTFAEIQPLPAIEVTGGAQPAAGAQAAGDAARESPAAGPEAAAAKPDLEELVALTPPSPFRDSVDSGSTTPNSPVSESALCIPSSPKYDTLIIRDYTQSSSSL

As for `CN(CCNC(=O)C#Cc1ccccc1)c1nccs1` [Example 9, N-(2-(methyl(thiazol-2-yl)amino)ethyl)-3-phenylpropiolamide], the IC50 (in general, the midpoint of a concentration-inhibition curve) at mGluR5 receptor [1] amounted to 38 nM. Moreover, the Ki (commonly the equilibrium dissociation constant of an inhibitor or competing ligand from its target) on mGluR5 receptor [2] worked out at 1 nM.

As to `CN(CCNC(=O)C#Cc1cccc(Cl)c1)c1nccs1` [Example 19, N-(2-(Methyl(thiazol-2-yl)amino)ethyl)-3-(3-chlorophenyl)-propiolamide], the IC50 at mGluR5 receptor [1] is 1.9 nM. On mGluR5 receptor [2], the Ki stood at 0.4 nM.

On to `CN(c1nccs1)C1CN(C(=O)C#Cc2cccc(Cl)c2)C1` [Example 35, 1-(3-(3-Chlorophenyl)propioloyl)-3-(methyl(thiazol-2-yl)amino)azetidine], for which the IC50 at mGluR5 receptor [1] is 2.2 nM. For the same molecule, on mGluR5 receptor [2], the affinity corresponds to a Ki of 6.5 nM.

Take `CN(CCN(C)c1nccs1)C(=O)C#Cc1cccc(Cl)c1` [Example 18, N-Methyl-N-(2-(methyl(thiazol-2-yl)amino)ethyl)-3-(3-chlorophenyl)-propiolamide]: the IC50 on mGluR5 receptor [1] was 20 nM. The same molecule displayed a Ki on mGluR5 receptor [2] of 4.9 nM.

With `CN(CCN(C)c1nccs1)C(=O)C#Cc1cccc(C#N)c1` [Example 13, N-methyl-N-(2-(methyl(thiazol-2-yl)amino)ethyl)-3-(3-cyanophenyl)-propiolamide], at mGluR5 receptor [1], the IC50 came out at 87 nM. This molecule came in with a Ki at mGluR5 receptor [2] of 20.8 nM.

For `CN(CCNC(=O)C#Cc1cccc(Cl)c1)c1nccs1.Cl` [Example 23, N-(2-(Methyl(thiazol-2-yl)amino)ethyl)-3-(3-chlorophenyl)-propiolamide hydrochloride], at mGluR5 receptor [1], the IC50 worked out at 5.6 nM. Further, in the experiment with rats (iv, i.v. administration), it took a dose of 1 mg/kg to reach the 50% effect level (ED50). Moreover, in the experiment on rats (oral administration of 10 mg/kg), the “inhibition in the formaldehyde test” value came to 38%.

Take `CCOC(=O)c1csc(N(C)CCNC(=O)C#Cc2cccc(Cl)c2)n1` [Example 26, N-(2-(methyl-(4-ethoxycarbonylthiazol-2-yl)amino)ethyl)-3-(3-chlorophenyl)-propiolamide]: the IC50 on mGluR5 receptor [1] was determined as 86 nM. In addition, on mGluR5 receptor [2], the Ki was 3.6 nM.

With `CN(CCNC(=O)C#Cc1cccc(Cl)c1)c1nc(Br)cs1` [Example 33, N-(2-((4-bromothiazol-2-yl)(methyl)amino)ethyl)-3-(3-chlorophenyl)propiolamide], on mGluR5 receptor [1], the IC50 is 13 nM. For the same molecule, the affinity on mGluR5 receptor [2], expressed as Ki, was 10 nM.

Molecule `CN(CCN(C)c1nccs1)C(=O)C#Cc1ccccc1` [Example 4, N-Methyl-N-(2-(methyl(thiazol-2-yl)amino)ethyl)-3-phenylpropiolamide] had an IC50 on mGluR5 receptor [1] of 57 nM. On mGluR5 receptor [2], the Ki came out at 5.2 nM.

`Cc1cccc(C#CC(=O)N(C)CCN(C)c2nccs2)c1` [Example 7, N-methyl-N-(2-(methyl(thiazol-2-yl)amino)ethyl)-3-(3-methylphenyl)-propiolamide] displayed an IC50 on mGluR5 receptor [1] of 26 nM. In addition, on mGluR5 receptor [2], the Ki is 4.8 nM.

As to `CN(CCN(C)c1nccs1)C(=O)C#Cc1ccccn1` [Example 17, N-Methyl-N-(2-(methyl(thiazol-2-yl)amino)ethyl)-3-(pyrid-2-yl)-propiolamide], at mGluR5 receptor [1], the IC50 stood at 1250 nM.

As for `Cc1ccc(C#CC(=O)NC2CCN(c3ncc(C)s3)C2)cc1` (stereo not shown) [Example 73, N-(1-(5-methylthiazol-2-yl)pyrrolidin-3-yl)-3-p-tolylpropiolamide], the inhibition (in general, how much of the control response was suppressed) at 1 µM on mGluR5 receptor [1] worked out at 18%.

Molecule `O=C(C#Cc1ccccc1)NC1CCCN(c2nccs2)C1` (stereo not shown) [Example 15, 3-Phenyl-N-(1-(thiazol-2-yl)piperidin-3-yl)propiolamide] came in with an IC50 on mGluR5 receptor [1] of 86 nM. The molecule further showed a Ki at mGluR5 receptor [2] of 14.4 nM.

For `Cc1csc(N2CCC(NC(=O)C#Cc3cccc(C(F)(F)F)c3)C2)n1` (stereo not shown) [Example 71, N-(1-(4-methylthiazol-2-yl)pyrrolidin-3-yl)-3-(3-(trifluoromethyl)phenyl)-propiolamide], the inhibition at 1 µM at mGluR5 receptor [1] was found to be 59%.

In turn, `CC(C)(C)c1csc(N2CCC(NC(=O)C#Cc3cccc(F)c3)C2)n1` (stereo not shown) [Example 59, N-(1-(4-tert.-butylthiazol-2-yl)pyrrolidin-3-yl)-3-(3-fluorophenyl)propiolamide] returned an inhibition at 1 µM at mGluR5 receptor [1] of 34%.

`CC(C)(C)c1csc(N2CCC(NC(=O)C#Cc3ccccc3)C2)n1` (stereo not shown) [Example 60, N-(1-(4-tert.-butylthiazol-2-yl)pyrrolidin-3-yl)-3-phenylpropiolamide] returned an inhibition at 1 µM at mGluR5 receptor [1] of 30%.

For the molecule `O=C(C#Cc1cccc(Cl)c1)NC1CCCN(c2nccs2)C1` (stereo not shown) [Example 32, 3-(3-chlorophenyl)-N-(1-(thiazol-2-yl)piperidin-3-yl)-propiolamide], the IC50 at mGluR5 receptor [1] came out at 5 nM. Also, on mGluR5 receptor [2], the affinity corresponds to a Ki of 4 nM.

For `COc1cccc(C#CC(=O)NC2CCN(c3nc(C)c(C)s3)C2)c1` (stereo not shown) [Example 90, N-(1-(4,5-dimethylthiazol-2-yl)pyrrolidin-3-yl)-3-(3-methoxyphenyl)propiolamide], 1 µM produced 34% inhibition at mGluR5 receptor [1].
